Patent publication US7704723B2, “Isolation and characterization of novel clostridial species” (The Board of Regents For Oklahoma State University, priority 2006, dated 2010)
Marks after values point to notes of the source that are not given here.

Legend:
[1] = tested on: Clostridium ragsdalei strain P11; assay: Growth of strain P11 on organic and gaseous substrates as sole carbon and energy sources; format: cell-based; conditions: for Growth with substrate: Clostridium ragsdalei, malate and formate examined at pH 5.0-6.5; for Substrate utilization, C. ragsdalei: strain P11, growth on substrate as sole carbon and energy source, final OD600
Method: (§1) Except for the deletion of NaHCO3 and an initial pH 6.3, growth on organic and gaseous substrates was performed as previously described (Tanner et. al., 1993). Resazurin (1 mg/L) was used as the redox indicator. Purified agar was added to the medium at a concentration of 2% for colony morphology description (Table 5). Heat labile substrates were filter sterilized (not autoclaved) and added from sterile stock solutions to a final concentration of 5 g/L before inoculation. The optimum temperature and pH (initial pH) was determined in medium containing fructose as the substrate. For determination of the optimum pH, media was buffered with HOMOPIPES (homopiperazine-N,N′-bis-2-[ethanesulfonic acid] (Research Organics, Cleveland, Ohio), MES (2-[N-morpholino]ethanesulfonic acid), or TES (N-tris [hydroxymethyl]methyl-2-aminoethanesulfonic acid) at (1.0 g/L). A 0.1 ml (˜2%) inoculum of fructose-grown cells was used to initiate growth. All media components used in these experiments were obtained from Sigma unless otherwise noted (Sigma Chemical Co., St. Louis, Mo.).
(§2) Analytical methods. […] For the substrate malate, utilization was analyzed by HPLC (“high-performance liquid chromatography”) equipped with a UV detector set at 214 nm using a Alltech, Prevail Organic Acid column (4.6×150 mm, 5 μm; Alltech, Deerfield, Mich.) with a mobile phase of 25 mM KH2PO4, pH 2.5 and 10% (v/v) methanol.

[2] = tested on: Clostridium ljungdahlii strain PETC; assay: Growth of reference strain PETC on substrates as sole carbon and energy sources; format: cell-based; conditions: strain PETC; growth on substrate as sole carbon and energy source; final OD600
From the text: Organisms. Clostridium ljundahlii strain PETC was obtained from a fructose stock culture maintained by Dr. Ralph S. Tanner and was used as the reference control strain. Strain P11 was obtained from an anaerobic enrichment inoculated with fresh water sediment from the Duck Pond at the University of Oklahoma by a procedure described previously (Bryant, 1972) under an atmosphere of CO:N2:CO2 (75:15:10) and an initial pH of 6.0. The carbon monoxide oxidizing clostridium described within was named Clostridium ragsdalei. This bacterium was designated strain P11 and deposited with the American Type Culture Collection as strain ATCC BAA-622.
as §1, §2

Compound	Growth with substrate [1]	Substrate utilization, C. ragsdalei [1]	Substrate utilization, C. ljungdahlii [2]	Doubling time ([1]; strain P11 grown with the substrate under optimal conditions)
CCCO [1-Propanol]	chemoorganotrophic growth was observed	+ (positive (indicates a final OD600 of greater than or equal to 0.1.))	+^† (positive (indicates a final OD600 of greater than or equal to 0.1.))	
C[C@H](N)C(=O)O [Alanine]	chemoorganotrophic growth was observed			
N#C[C@H](O[C@@H]1O[C@H](CO[C@@H]2O[C@H](CO)[C@@H](O)[C@H](O)[C@H]2O)[C@@H](O)[C@H](O)[C@H]1O)c1ccccc1 [Amygdalin]		−	−	
O=C[C@@H](O)[C@H](O)[C@H](O)CO [Arabinose]		−		
N=C(N)NCCC[C@H](N)C(=O)O [Arginine]		−		
C[N+](C)(C)CC(=O)O [Betaine]		−	−	
OC[C@H]1O[C@@H](O[C@H]2[C@H](O)[C@@H](O)[C@H](O)O[C@@H]2CO)[C@H](O)[C@@H](O)[C@@H]1O [Cellibiose]		−	−	
O=C[C@@H](O)[C@H](O)CO [D (−) Threose]	chemoorganotrophic growth was observed			
O=C[C@H](O)[C@H](O)CO [Erythrose]		−	−	
O=C(CO)[C@@H](O)[C@H](O)[C@H](O)CO [Fructose]	chemoorganotrophic growth was observed			
C[C@H](O)[C@@H](O)[C@@H](O)[C@H](O)C=O [Fucose]		−	−	
O=C[C@H](O)[C@@H](O)[C@@H](O)[C@H](O)CO [Galactose]		−	−	
O=C(O)[C@H](O)[C@@H](O)[C@H](O)[C@H](O)CO [Gluconic acid]		−		
N[C@@H](CCC(=O)O)C(=O)O [Glutamate]	chemoorganotrophic growth was observed	+ (positive (indicates a final OD600 of greater than or equal to 0.1.))	+^† (positive (indicates a final OD600 of greater than or equal to 0.1.))	
NC(=O)CC[C@H](N)C(=O)O [Glutamine]		−	−	
OCC(O)CO [Glycerol]		−	−	
O=C(O)CO [Glycolic acid]		−	−	
N[C@@H](Cc1c[nH]cn1)C(=O)O [Histidine]		−		
O[C@H]1[C@H](O)[C@@H](O)[C@H](O)[C@@H](O)[C@H]1O [Inositol]		−	−	
CC(C)O [Iso-propanol]		−	−	
O=C[C@H](O)[C@@H](O)CO [L (+) Threose]		−	−	
O=C([O-])/C=C/C(=O)[O-].[Na+].[Na+] [Na-Fumarate]		−		
CC(=O)C(=O)O [Na-Pyruvate]	chemoorganotrophic growth was observed			
C[C@H](O)[C@H](O)[C@@H](O)[C@@H](O)C=O [Rhamnose]		−		
N[C@@H](CO)C(=O)O [Serine]	chemoorganotrophic growth was observed			
OC[C@H]1O[C@@](CO)(O[C@H]2O[C@H](CO)[C@@H](O)[C@H](O)[C@H]2O)[C@@H](O)[C@@H]1O [Sucrose]	chemoorganotrophic growth was observed			
O=C[C@H](O)[C@@H](O)[C@H](O)CO [Xylose]	chemoorganotrophic growth was observed			0.220 h⁻¹
